According to patent US20210395210A1, “INHIBITION OF BACTERIAL CHAPERONIN SYSTEMS” (THE TRUSTEES OF INDIANA UNIVERSITY, priority 2018, published 2021):
Like-named read-outs stand apart in the source and are kept apart here.

How the values were obtained:
[1] = Liver cell viability assay (Alamar Blue); conditions: human
Procedure: (§1) HEK 293 cells were maintained in MEM medium (Corning Cellgro, 10-009 CV) supplemented with 10% FBS (Sigma, F2242). […] Cells at 80% confluence were harvested and diluted in growth medium, then 45 μL of the THLE-3 cells (1,500 cells/well) or HEK 293 cells (1,500 cells/well) were dispensed per well, and plates were sealed with “Breathe Easy” oxygen permeable membranes (Diversified Biotech) and incubated at 37° C., 5% CO2, for 24 h.

[2] = test system: Acinetobacter baumannii (ATCC 19606); assay: Bacterial proliferation assay, A. baumannii; format: cell-based
Summary of the method: (§2)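 Cultures in BHI broth with 25 mg/L Ca2+ and 12.5 mg/L Mg2+ were diluted to OD600 0.017 and exposed to compounds in 384-well plates at 37 °C without shaking. OD600 was read at 6-8 h (S. aureus, E. cloacae, P. aeruginosa) or 24 h (A. baumannii). EC50 values were averaged over quadruplicates.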

[3] = Kidney cell viability assay (Alamar Blue); conditions: human
Procedure: as §1

native MDH = molecular target: T1, native MDH (Sus scrofa, UniProt P00346); assay: Counter-screen for inhibition of native MDH enzymatic activity; format: biochemical, pig
T1 construct: soluble pig heart MDH from Roche, product #10127248001; purchased Roche 10127248001; host or cells: pig heart
T1 sequence (P00346 25-338): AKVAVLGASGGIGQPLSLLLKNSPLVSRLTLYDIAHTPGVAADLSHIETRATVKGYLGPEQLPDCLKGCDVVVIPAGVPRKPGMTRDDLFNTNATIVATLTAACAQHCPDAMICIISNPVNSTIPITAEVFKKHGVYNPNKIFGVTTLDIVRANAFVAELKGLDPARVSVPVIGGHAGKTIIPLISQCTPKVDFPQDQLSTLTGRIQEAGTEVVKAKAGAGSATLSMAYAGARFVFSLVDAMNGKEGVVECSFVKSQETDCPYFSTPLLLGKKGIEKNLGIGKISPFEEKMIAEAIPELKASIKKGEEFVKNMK
Summary of the method: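 Compounds were added only after GroEL/ES-mediated MDH refolding (45 min, 37 °C) had been EDTA-quenched, so only refolded MDH activity is probed.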

[4] = test system: Enterobacter cloacae (ATCC 13047); assay: Bacterial proliferation assay, E. cloacae; format: cell-based
Summary of the method: as §2

[5] = test system: Methicillin resistant S. aureus (MRSA) (ATCC BAA-44); assay: Bacterial proliferation assay, MRSA; format: cell-based, Staphylococcus aureus; conditions: Staphylococcus aureus
Summary of the method: as §2

[6] = ATCC19606, OD600 at 24 h, read-out: Bacterial Proliferation EC50 A. baumannii
[7] = ATCC19606, log of EC50 (μM scale), with standard deviation, read-out: log(EC50) Bacterial Proliferation Assay A. baumannii (converted)
[8] = log of IC50 (μM scale), with standard deviation, read-out: log(IC50) Native MDH Reporter (converted)
[9] = read-out: Biochemical Assay IC50 Native MDH Reporter
[10] = ATCC13047, OD600 at 6-8 h, read-out: Bacterial Proliferation EC50 E. cloacae
[11] = ATCC13047, log of EC50 (μM scale), with standard deviation, read-out: log(EC50) Bacterial Proliferation Assay E. cloacae (converted)
[12] = MRSA, OD600 at 6-8 h, read-out: Bacterial Proliferation EC50 S. aureus Resistant
[13] = MRSA, log of EC50 (μM scale), with standard deviation, read-out: log(EC50) Bacterial Proliferation Assay S. aureus Resistant (converted)

SMILES | CC50 at 48 h ([1]; THLE-3 liver cells) [µM] | EC50 [2, 6] [µM] | EC50 [2, 7] [µM] | CC50 at 48 h ([3]; HEK 293 kidney cells) [µM] | IC50 (native MDH; [8]) [µM] | IC50 (native MDH; [9]) [µM] | EC50 [4, 10] [µM] | EC50 [4, 11] [µM] | EC50 [5, 12] [µM] | EC50 [5, 13] [µM] | CC50 at 48 h [1] [µM] | CC50 at 48 h [3] [µM] | EC50 ([2]; ATCC19606, 24 h, read-out: Bacterial Proliferation EC50 A. baumannii) [µM] | EC50 ([2]; ATCC19606, read-out: log(EC50) Bacterial Proliferation Assay A. baumannii (converted)) [µM] | inhibition of native MDH enzymatic activity (in words) (native MDH; false-positive counter-screen) | log(IC50) Native MDH Reporter (native MDH; log of IC50 (μM scale), with standard deviation) | EC50 ([4]; ATCC13047, read-out: Bacterial Proliferation EC50 E. cloacae) [µM] | EC50 ([4]; ATCC13047, read-out: log(EC50) Bacterial Proliferation Assay E. cloacae (converted)) [µM] | EC50 ([5]; read-out: log(EC50) Bacterial Proliferation Assay S. aureus Resistant (converted)) [µM]
CC1(C)S[C@@H]2[C@H](NC(=O)[C@H](N)c3ccccc3)C(=O)N2[C@H]1C(=O)O [Ampicillin, ampicillin, reference compound] | > 100 | > 100 | > 100 | > 100 | > 63.1 | > 63 | > 100 | > 100 | > 100 | > 100 | – | – | – | – | – | – | – | – | –
COc1ccc(Br)cc1C(=O)Nc1ccccc1 [Compound 43, 5-Bromo-2-methoxy-N-phenylbenzamide] | – | > 100 | > 100 | – | > 63.1 | > 63 | > 100 | > 100 | – | > 100 | > 100 | > 100 | – | – | – | – | – | – | –
COc1c(Br)cccc1C(=O)Nc1ccc(Sc2nc3ccccc3s2)cc1 [Compound 34, N-(4-(Benzo[d]thiazol-2-ylthio)phenyl)-3-bromo-2-methoxybenzamide] | – | > 100 | > 100 | – | > 63.1 | > 63 | > 100 | > 100 | – | > 100 | > 100 | > 100 | – | – | – | – | – | – | –
CO[C@H]1/C=C/O[C@@]2(C)Oc3c(C)c(O)c4c(O)c(c(/C=N/N5CCN(C)CC5)c(O)c4c3C2=O)NC(=O)/C(C)=C\C=C\[C@H](C)[C@H](O)[C@@H](C)[C@@H](O)[C@@H](C)[C@H](OC(C)=O)[C@@H]1C [Rifampicin, rifampicin, reference compound] | – | 1.3 | 1.32 | – | > 63.1 | – | 8.8 | 8.71 | 0.23 | 0.229 | 72.4 | > 100 | – | – | – | – | – | – | –
Cc1cc(C(C#N)c2ccc(Cl)cc2)c(Cl)cc1NC(=O)c1cc(I)cc(I)c1O (stereo not shown) [Closantel, closantel, reference compound] | – | – | – | 75.9 | – | – | – | – | – | – | 52.5 | – | > 100 | > 100 | inhibit native MDH | 0.79 ± 0.17 | > 100 | > 100 | 0.468
COc1c(Br)cc(Br)cc1C(=O)Nc1ccc(Sc2nc3ccccc3s2)cc1 [Compound 33, N-(4-(Benzo[d]thiazol-2-ylthio)phenyl)-3,5-dibromo-2-methoxybenzamide] | – | > 100 | > 100 | – | > 63.1 | > 63 | > 100 | > 100 | – | > 100 | > 100 | > 100 | – | – | – | – | – | – | –
COc1ccccc1C(=O)Nc1ccc(Sc2nc3ccccc3s2)c(Cl)c1 [Compound 32, N-(4-(Benzo[d]thiazol-2-ylthio)-3-chlorophenyl)-2-methoxybenzamide] | – | > 100 | > 100 | – | > 63.1 | > 63 | > 100 | > 100 | – | > 100 | > 100 | > 100 | – | – | – | – | – | – | –
O=C(Nc1ccccc1)c1cc(Br)cc(Br)c1 [Compound 26, 3,5-Dibromo-N-phenylbenzamide] | – | > 100 | > 100 | – | > 63.1 | > 63 | > 100 | > 100 | – | > 100 | > 100 | > 100 | – | – | – | – | – | – | –
